Laboratory results taken from US20130165475A1, “DEUTERIUM-ENRICHED HETEROCYCLIC COMPOUNDS AS KINASE INHIBITORS” (ASCEPION PHARMACEUTICALS, INC., priority 2010, published 2013).
Where a name gives a salt, the structure may show the parent alone.

Assays:
VEGFR2 = molecular target: T1, VEGFR2 (Homo sapiens, UniProt P35968); experiment: VEGFR2 cell-based assay (ELISA, phosphor-/total VEGFR2 in transfected CHO cells); settings: compound at 100 nM; CHO cells transfected with full length VEGFR2; FBS stimulation; read-out: % VEGFR2 kinase activity remains
T1 construct: expressed in transfected cells; host or cells: CHO cells
Excerpt: A standard cell-based assay for VEGFR2 kinase activity can be used to test or screen the compounds of this invention and to identify VEGFR2 antagonists. In this example, ELISA kits (R&D Systems, Inc., Minneapolis, Minn. 55413, USA) were used.
(§1) The activity of VEGFR2 in cells depended on its autophosphorylation level by various factors including growth factors. In order to induce the cell to produce VEGFR2, full length of VEGFR2 sequence was cloned into PC-DNA3.1 vector, the plasmid was then transfected into CHO cells. After 48 hours, the expression of VEGFR2 in transfected CHO cells was confirmed by regular western blotting.
A compound to be tested was first dissolved in DMSO to a concentration of 10 mM and stored at −20° C. One day before the test, CHO cells transfected with full length VEGFR2 plasmid were grown in Dulbecco's Modified Eagle Medium (DMEM) without the presence of serum. On the day of the test, the compounds with various concentrations in DMSO (from 0.5 nM to 500 nM) were added into DMEM. Two hours later, 20% of FBS (Fetal Bovine Serum) was added into the medium to stimulate the production of phosphor-VEGFR2. Cell lysate from approximately 5×10^5 transfected CHO cells were reacted with anti-phosphor VEGFR2 or anti-total VEGFR2 antibody in 96-well plates, in the presence of detection antibody. The phosphor-VEGFR2 or total VEGFR2 were detected with Streptavidin-HRP(R&D Systems), followed by chemiluminescent detection. The level of VEGFR2 kinase activity was quantified as the ratio between the amount of phosphor- and that of total VEGFR2 proteins.

Mouse liver microsome = experiment: Liver microsomal stability assay, mouse; assay type: in vitro ADME; set-up: key: A: the percentage of a compound remains is greater than that of its deuterium non-enriched counterpart; B: a result otherwise; settings: 40 μM, 37° C., 30 min, 1 mg/ml microsome proteins; class relative to deuterium non-enriched counterpart
Procedure: A standard liver microsomal stability assay can be used to test or screen the compounds of this invention and to identify compounds with enhanced metabolic stability due to the enrichment of deuterium in the compounds. Liver microsome proteins prepared from different species such as mouse and rat were obtained from a commercial source (Research Institute for Liver Diseases, Shanghai, China). The assay was conducted in 1.5% potassium hydrogenphosphate (K2HPO4) in the presence of liver microsome proteins at 1 mg/ml and supplemented with an […] (3.3 mM NADPH, 3.3 mM glucose-6-phosphate, 6 units/ml G6PDase, and 3.3 mM magnesium chloride). Test compound was added into the assay mixture to a final concentration of 40 μM and incubated at 37° C. for 0 or 30 minutes. The reaction was stopped by the addition of 20 μM Bifonazole/CAN. Samples were then centrifuged at 14000 rpm for 10 minutes to precipitate proteins. Supernatant were then transferred to microcentrifuge tubes and subject to reverse phase HPLC analysis to determine the concentration of test compound.
The percentage of compounds that remained in the assay reactions after a thirty-minute incubation at 37° C. is calculated as the ratio between the amount of compound remained after a thirty-minute and that after a zero-minute incubation.

c-Met = molecular target: T2, c-Met (Homo sapiens, UniProt P08581); experiment: c-Met cell-based assay (ELISA, phosphor-/total c-Met in transfected CHO cells, HGF stimulated); settings: compound at 100 nM; CHO cells transfected with full length c-Met; HGF 100 ng/mL
T2 construct: expressed in transfected cells; host or cells: CHO cells
Excerpt: A standard cell-based assay for c-Met kinase activity can be used to test or screen the compounds of this invention and to identify c-Met antagonists. In this example, ELISA kits (R&D Systems, Inc., Minneapolis, Minn. 55413, USA) were used.
as §1, with “c-Met” for “VEGFR2”, “it specific” for “various factors including”, “factor-Hepatocyte growth factor (HGF).” for “factors.”, “c-Met,” for “VEGFR2,”
(§2) A compound to be tested was first dissolved in DMSO to a concentration of 10 mM and stored at −20° C. One day before the screening, CHO cells transfected with full length c-Met plasmid were grown in DMEM medium without the presence of serum. On the day of screening procedure, the compounds with various concentration in DMSO (from 0.5 nM to 500 nM) were added into DMEM medium, two hours later, Hepatocyte growth factor (HGF) was added into the medium at the concentration of 100 ng/mL to stimulate the production of phosphor-c-Met. Cell lysate from approximately 5×10^5 transfected CHO cells were reacted with anti-phosphor c-Met or anti-total c-Met antibody in 96 well plates, in the presence of detection antibody. The phosphor-c-Met or total c-Met were detected with Streptavidin-HRP (R&D Systems), followed by chemiluminescent detection. The level of c-Met kinase activity was quantified as the ratio between the amount of phosphor- and that of total c-Met proteins.

PDGFRβ = molecular target: T3, PDGFRβ (Homo sapiens, UniProt P09619); experiment: PDGFRβ cell-based assay (ELISA, phosphor-/total PDGFRβ in transfected CHO cells); settings: compound at 100 nM; CHO cells transfected with full length PDGFRβ; FBS stimulation; read-out: % PDGFRβ kinase activity remains
T3 construct: expressed in transfected cells; host or cells: CHO cells
Excerpt: A standard cell-based assay for PDGFRβ kinase activity can be used to test or screen the compounds of this invention and to identify PDGFRβ antagonists. In this example, ELISA kits (R&D Systems, Inc., Minneapolis, Minn. 55413, USA) were used.
as §1, with “PDGFRβ” for “VEGFR2”, “PDGFRβ,” for “VEGFR2,”
as §2, with “PDGFRβ” for “c-Met”, “20% of FBS (Fetal Bovine Serum)” for “Hepatocyte growth factor (HGF)”, “medium” for “medium at the concentration of 100 ng/mL”, “phosphor-PDGFRβ.” for “phosphor-c-Met.”, “phosphor-PDGFRβ” for “phosphor-c-Met”

T2 sequence (P08581 25-1390): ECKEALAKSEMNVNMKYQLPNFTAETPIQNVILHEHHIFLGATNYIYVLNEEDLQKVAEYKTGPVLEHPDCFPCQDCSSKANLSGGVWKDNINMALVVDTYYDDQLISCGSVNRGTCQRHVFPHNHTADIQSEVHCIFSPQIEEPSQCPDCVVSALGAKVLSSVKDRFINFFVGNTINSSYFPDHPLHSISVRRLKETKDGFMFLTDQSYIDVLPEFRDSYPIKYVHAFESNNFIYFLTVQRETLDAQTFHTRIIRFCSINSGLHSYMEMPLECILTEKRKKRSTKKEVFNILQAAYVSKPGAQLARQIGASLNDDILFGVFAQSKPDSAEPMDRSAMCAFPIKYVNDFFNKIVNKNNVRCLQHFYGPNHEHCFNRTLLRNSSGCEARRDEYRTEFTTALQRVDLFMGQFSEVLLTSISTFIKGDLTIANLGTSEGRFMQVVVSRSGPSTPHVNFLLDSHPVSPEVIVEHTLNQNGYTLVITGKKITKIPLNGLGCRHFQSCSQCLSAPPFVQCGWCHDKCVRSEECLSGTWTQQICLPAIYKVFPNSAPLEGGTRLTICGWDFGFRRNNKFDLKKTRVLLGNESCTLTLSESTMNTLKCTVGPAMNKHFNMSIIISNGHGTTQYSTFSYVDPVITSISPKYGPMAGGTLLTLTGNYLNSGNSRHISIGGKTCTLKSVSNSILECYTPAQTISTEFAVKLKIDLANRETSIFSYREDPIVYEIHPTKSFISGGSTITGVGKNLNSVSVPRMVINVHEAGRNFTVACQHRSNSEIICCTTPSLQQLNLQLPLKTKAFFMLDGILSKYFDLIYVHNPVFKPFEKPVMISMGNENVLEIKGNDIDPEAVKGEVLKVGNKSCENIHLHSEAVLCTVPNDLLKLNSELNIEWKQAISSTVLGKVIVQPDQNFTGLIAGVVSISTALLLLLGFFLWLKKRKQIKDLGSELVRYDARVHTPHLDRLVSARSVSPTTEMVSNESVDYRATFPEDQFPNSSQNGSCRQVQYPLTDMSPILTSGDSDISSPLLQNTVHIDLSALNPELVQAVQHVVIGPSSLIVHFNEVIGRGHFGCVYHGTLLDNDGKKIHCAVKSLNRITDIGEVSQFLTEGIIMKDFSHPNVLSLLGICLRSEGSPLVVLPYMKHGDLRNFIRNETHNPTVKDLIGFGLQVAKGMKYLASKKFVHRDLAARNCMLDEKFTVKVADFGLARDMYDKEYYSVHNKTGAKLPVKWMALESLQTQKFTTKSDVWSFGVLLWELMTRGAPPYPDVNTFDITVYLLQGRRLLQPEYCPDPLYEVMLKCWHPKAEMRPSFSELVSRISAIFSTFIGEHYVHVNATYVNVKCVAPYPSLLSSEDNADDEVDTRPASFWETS
T3 sequence (P09619 33-1106): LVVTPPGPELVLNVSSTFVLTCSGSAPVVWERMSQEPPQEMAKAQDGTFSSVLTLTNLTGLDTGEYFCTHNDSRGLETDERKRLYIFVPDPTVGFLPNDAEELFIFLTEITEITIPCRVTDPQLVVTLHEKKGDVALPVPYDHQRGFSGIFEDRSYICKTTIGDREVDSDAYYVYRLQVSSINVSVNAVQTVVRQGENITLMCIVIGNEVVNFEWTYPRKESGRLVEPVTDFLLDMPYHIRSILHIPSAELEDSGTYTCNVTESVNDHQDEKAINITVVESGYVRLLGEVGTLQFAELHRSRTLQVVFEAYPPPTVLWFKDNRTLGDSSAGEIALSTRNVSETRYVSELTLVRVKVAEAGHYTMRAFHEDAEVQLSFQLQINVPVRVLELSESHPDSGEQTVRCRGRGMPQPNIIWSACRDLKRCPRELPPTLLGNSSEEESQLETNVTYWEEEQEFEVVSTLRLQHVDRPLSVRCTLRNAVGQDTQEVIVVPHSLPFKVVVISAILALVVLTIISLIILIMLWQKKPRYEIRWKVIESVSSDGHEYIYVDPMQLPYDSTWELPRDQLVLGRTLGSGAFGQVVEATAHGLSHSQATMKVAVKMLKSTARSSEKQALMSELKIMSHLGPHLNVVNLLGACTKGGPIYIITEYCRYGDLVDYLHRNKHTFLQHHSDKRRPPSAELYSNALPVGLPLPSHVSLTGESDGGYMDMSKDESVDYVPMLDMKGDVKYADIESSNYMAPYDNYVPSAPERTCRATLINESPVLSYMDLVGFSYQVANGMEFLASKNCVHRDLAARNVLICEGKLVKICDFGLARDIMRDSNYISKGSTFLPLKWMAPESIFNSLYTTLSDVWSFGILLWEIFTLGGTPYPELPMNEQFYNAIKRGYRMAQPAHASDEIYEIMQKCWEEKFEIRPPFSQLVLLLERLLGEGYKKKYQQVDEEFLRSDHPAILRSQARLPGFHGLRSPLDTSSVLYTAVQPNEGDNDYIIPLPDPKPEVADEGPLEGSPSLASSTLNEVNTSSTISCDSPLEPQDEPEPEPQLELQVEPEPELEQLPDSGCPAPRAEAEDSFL
T1 sequence (P35968 20-1356): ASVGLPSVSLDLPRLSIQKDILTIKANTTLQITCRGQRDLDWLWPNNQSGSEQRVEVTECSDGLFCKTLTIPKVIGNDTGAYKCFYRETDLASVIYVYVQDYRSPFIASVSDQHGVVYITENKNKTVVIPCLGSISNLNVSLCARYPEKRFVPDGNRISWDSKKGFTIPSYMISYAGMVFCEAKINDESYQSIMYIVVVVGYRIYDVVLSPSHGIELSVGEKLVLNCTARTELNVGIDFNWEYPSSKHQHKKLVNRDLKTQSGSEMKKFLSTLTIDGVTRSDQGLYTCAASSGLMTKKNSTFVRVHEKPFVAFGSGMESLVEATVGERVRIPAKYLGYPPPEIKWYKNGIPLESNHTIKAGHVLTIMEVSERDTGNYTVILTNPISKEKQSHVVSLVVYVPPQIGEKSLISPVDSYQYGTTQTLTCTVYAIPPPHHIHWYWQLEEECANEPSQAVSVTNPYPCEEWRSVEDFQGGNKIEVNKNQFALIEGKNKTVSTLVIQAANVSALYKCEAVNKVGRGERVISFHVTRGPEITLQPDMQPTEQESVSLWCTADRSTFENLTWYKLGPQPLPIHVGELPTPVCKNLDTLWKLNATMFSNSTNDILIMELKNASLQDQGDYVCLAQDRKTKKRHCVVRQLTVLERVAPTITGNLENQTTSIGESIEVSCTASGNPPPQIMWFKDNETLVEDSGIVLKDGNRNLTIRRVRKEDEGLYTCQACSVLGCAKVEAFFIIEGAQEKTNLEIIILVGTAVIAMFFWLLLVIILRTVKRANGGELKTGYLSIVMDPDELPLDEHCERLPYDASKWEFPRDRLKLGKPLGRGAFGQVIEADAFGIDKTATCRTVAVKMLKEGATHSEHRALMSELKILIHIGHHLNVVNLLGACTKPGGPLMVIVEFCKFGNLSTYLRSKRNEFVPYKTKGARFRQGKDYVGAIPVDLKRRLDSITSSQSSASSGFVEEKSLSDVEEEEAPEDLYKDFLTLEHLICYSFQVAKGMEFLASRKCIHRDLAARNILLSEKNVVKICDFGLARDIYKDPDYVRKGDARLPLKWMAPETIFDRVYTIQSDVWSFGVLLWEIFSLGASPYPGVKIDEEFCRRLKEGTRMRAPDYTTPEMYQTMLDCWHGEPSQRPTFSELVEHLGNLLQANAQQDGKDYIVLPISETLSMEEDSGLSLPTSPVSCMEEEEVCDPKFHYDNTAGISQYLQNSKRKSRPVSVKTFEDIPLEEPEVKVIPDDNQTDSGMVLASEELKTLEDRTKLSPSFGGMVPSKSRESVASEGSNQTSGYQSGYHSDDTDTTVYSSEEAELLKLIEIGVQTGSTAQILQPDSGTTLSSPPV

| remaining activity at 0.1 µM (VEGFR2) | % of compound remained at the 30th minutes, Mouse liver microsome (Mouse liver microsome) | remaining activity at 0.1 µM (PDGFRβ) | Compound | % C-Met kinase activity remains (c-Met) |
| --- | --- | --- | --- | --- |
| < 70% | B | ≥ 70% | [2H]C(c1c[nH]c2ncccc12)N1CCc2c(NC(=O)Nc3cc(Cl)ccc3OC([2H])([2H])[2H])cccc21 (centres unmarked) [Example 15, 1-[5-Chloro-2-(trideuteriomethoxy)phenyl]-3-[1-[deuterio(1H-pyrrolo[2,3-b]pyridin-3-yl)methyl]indolin-4-yl]urea] | A (the percentage of kinase activity remains is below 70%) |
| < 70% | A | ≥ 70% | [2H]C(c1c[nH]c2ncccc12)n1ccc2c(NC(=O)Nc3cc(Cl)ccc3OC([2H])([2H])[2H])cccc21 (centres unmarked) [Example 16, 1-[5-chloro-2-(trideuteriomethoxy)phenyl]-3-[1-[deuterio(1H-pyrrolo[2,3-b]pyridin-3-yl)methyl]indol-4-yl]urea] | A (the percentage of kinase activity remains is below 70%) |
| < 70% | A | < 70% | [2H]C(c1c[nH]c2ncccc12)n1ccc2c(NC(=O)Nc3cc(Cl)ccc3OC)cccc21 (centres unmarked) [Example 18, 1-(5-chloro-2-methoxyphenyl)-3-[1-[deuterio(1H-pyrrolo[2,3-b]pyridin-3-yl)methyl]indol-4-yl]urea] | A (the percentage of kinase activity remains is below 70%) |

Second part, the molecule before the results:

| Compound | remaining activity at 0.1 µM (VEGFR2) | % of compound remained at the 30th minutes, Mouse liver microsome (Mouse liver microsome) | remaining activity at 0.1 µM (PDGFRβ) | % C-Met kinase activity remains (c-Met) |
| --- | --- | --- | --- | --- |
| [2H]C([2H])(c1ccnc2[nH]ccc12)n1ccc2c(NC(=O)Nc3cc(Cl)ccc3F)cccc21 [Example 12, 1-(5-chloro-2-fluorophenyl)-3-[1-[dideuterio(1H-pyrrolo[2,3-b]pyridin-4-yl)methyl]indol-4-yl]urea hydrochloride] | < 70% | B | ≥ 70% | A (the percentage of kinase activity remains is below 70%) |
| [2H]C([2H])(c1ccnc2[nH]ccc12)N1CCc2c(NC(=O)Nc3cccc(C)c3)cccc21 [Example 13, 1-[1-[Dideuterio(1H-pyrrolo[2,3-b]pyridin-4-yl)methyl]indolin-4-yl]-3-(m-tolyl)urea hydrochloride] | < 70% | A | < 70% | A (the percentage of kinase activity remains is below 70%) |
| [2H]C([2H])(c1ccnc2[nH]ccc12)n1ccc2c(NC(=O)Nc3cccc(C)c3)cccc21 [Example 14, 1-[1-[dideuterio(1H-pyrrolo[2,3-b]pyridin-4-yl)methyl]indol-4-yl]-3-(m-tolyl)urea hydrochloride] | < 70% | A | < 70% | A (the percentage of kinase activity remains is below 70%) |
| [2H]C(c1c[nH]c2ncccc12)N1CCc2c(NC(=O)Nc3cc(Cl)ccc3OC)cccc21 (centres unmarked) [Example 17, 1-(5-Chloro-2-methoxyphenyl)-3-[1-[deuterio(1H-pyrrolo[2,3-b]pyridin-3-yl)methyl]indolin-4-yl]urea] | < 70% | A | < 70% | A (the percentage of kinase activity remains is below 70%) |
| [2H]C(c1c[nH]c2ncccc12)N1CCc2c(NC(=O)Nc3cc(Cl)ccc3F)cccc21 (centres unmarked) [Example 19, 1-(5-Chloro-2-fluorophenyl)-3-[1-[deuterio(1H-pyrrolo[2,3-b]pyridin-3-yl)methyl]indolin-4-yl]urea] | < 70% | B | ≥ 70% | B (the percentage is greater or equal to 70%) |
